From patent publication US20240246992A1, “MACROCYCLIC LRRK2 KINASE INHIBITORS” (LES LABORATOIRES SERVIER, priority 2021, published 2024)

Biological target: human recombinant LRRK2 protein (Homo sapiens, UniProt Q5S007)
Assay: LRRK2 kinase activity assay (ADP-Glo, LRRKtide peptide)
Format: biochemical
Conditions: human recombinant LRRK2 wt, LRRKtide peptide and ATP, 1 h at 37° C.
Procedure, shortened: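 Human recombinant LRRK2 reacted with LRRKtide peptide and ATP for 1 h at 37 °C in the presence of compound. ADP formed measured by ADP-Glo luminescence; IC50 fitted from 10 concentrations run in duplicate.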

human recombinant LRRK2 protein, sequence (Q5S007 whole entry): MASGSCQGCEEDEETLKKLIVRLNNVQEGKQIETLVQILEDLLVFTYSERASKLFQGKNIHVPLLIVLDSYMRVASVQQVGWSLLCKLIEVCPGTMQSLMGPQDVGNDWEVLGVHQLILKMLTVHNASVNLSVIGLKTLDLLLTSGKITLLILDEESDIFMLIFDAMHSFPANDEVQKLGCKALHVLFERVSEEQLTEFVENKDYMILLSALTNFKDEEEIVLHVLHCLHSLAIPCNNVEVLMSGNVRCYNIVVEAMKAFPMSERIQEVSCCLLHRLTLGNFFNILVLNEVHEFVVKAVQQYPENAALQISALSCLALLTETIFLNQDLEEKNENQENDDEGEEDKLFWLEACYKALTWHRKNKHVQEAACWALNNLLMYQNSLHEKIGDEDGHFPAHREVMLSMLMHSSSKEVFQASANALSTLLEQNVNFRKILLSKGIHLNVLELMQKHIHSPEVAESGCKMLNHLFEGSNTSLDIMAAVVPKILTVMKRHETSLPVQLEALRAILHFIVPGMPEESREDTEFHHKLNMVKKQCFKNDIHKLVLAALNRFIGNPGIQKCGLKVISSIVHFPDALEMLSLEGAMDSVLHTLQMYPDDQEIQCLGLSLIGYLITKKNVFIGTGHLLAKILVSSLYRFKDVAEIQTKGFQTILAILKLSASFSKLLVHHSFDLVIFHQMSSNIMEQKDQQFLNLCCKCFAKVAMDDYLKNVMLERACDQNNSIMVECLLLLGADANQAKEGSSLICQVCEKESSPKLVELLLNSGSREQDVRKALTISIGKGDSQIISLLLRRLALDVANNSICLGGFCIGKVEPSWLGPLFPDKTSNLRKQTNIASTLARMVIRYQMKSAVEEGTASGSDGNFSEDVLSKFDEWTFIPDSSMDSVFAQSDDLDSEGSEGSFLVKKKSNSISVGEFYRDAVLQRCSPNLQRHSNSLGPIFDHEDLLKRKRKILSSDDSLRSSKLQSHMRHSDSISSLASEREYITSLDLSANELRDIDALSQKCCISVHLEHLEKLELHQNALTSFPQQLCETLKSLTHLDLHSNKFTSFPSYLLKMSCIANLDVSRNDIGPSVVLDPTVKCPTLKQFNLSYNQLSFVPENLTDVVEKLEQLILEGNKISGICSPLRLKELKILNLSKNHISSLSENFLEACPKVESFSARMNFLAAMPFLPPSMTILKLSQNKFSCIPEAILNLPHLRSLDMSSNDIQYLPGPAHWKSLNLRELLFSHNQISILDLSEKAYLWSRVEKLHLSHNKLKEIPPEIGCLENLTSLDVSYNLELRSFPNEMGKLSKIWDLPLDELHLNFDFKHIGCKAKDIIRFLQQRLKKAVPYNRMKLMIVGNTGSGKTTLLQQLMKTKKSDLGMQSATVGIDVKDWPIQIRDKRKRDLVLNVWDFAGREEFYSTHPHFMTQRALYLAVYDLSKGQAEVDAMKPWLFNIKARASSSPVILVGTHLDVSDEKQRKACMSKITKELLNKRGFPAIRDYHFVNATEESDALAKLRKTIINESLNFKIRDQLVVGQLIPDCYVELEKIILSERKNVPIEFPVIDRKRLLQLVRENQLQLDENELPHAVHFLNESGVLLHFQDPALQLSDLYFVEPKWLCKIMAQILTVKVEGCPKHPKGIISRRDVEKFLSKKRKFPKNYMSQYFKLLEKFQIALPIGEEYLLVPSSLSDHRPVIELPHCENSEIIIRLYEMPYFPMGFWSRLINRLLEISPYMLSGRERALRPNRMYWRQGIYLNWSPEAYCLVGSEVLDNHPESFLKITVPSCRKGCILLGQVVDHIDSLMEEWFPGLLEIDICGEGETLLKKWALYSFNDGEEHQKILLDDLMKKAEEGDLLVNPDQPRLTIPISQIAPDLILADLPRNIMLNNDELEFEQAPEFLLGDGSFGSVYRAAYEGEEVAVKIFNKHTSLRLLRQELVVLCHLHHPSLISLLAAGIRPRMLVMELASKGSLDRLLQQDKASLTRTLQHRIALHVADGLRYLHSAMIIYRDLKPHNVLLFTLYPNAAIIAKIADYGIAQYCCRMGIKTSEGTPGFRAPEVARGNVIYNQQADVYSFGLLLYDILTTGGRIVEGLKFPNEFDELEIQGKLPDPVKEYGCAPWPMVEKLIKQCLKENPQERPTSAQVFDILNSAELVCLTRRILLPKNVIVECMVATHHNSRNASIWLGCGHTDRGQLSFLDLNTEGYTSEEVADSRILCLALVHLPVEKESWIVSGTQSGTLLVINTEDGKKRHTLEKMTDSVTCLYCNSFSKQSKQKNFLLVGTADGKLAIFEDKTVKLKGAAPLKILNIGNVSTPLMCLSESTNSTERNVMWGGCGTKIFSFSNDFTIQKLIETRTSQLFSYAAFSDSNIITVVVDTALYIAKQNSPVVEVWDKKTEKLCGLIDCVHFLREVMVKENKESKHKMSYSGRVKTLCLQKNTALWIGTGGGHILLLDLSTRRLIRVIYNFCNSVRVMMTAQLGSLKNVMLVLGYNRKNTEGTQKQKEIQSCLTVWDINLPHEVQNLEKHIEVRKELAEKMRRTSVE

| IC50 | SMILES |
| --- | --- |
| < 100 nM | C[C@@H]1COCCn2cc(cn2)-c2n[nH]c3ccc(cc23)OCCO1 [Example 70, (10R)-10-methyl-8,11,14-trioxa-4,5,19,20-tetraazatetracyclo[13.5.2.1^2,5.0^18,21]tricosa-1(20),2(23),3,15(22),16,18(21)-hexaene] |
| < 100 nM | C[C@@H]1OCCOC[C@H](C)Oc2ccc3[nH]nc(c3c2)-c2cncc1c2 [Example 9, (7S,13S)-7,13-dimethyl-8,11,14-trioxa-4,19,20-triazatetracyclo[13.5.2.1^2,6.0^18,21]tricosa-1(20),2(23),3,5,15(22),16,18(21)-heptaene] |
| < 100 nM | C[C@@H]1COCCCCn2ncc(n2)-c2n[nH]c3ccc(cc23)O1 [Example 130, (12R)-12-methyl-10,13-dioxa-4,5,18,19,22-pentaazatetracyclo[12.5.2.1^2,5.0^17,20] docosa-1(19),2(22),3,14(21),15,17(20)-hexaene] |
| < 10 nM | O=C1COc2cc(cc(C3CCOCC3)c2)-c2n[nH]c3ccc(cc23)OCCCN1 [Example 146, 4-(oxan-4-yl)-7,14-dioxa-10,19,20-triazatetracyclo[13.5.2.1^2,6.0^18,21]tricosa-1(20),2(23),3,5,15,17,21-heptaen-9-one] |
| < 10 nM | COC1CN(c2cc3nc(n2)OCCOCC[C@H](C)Nc2ccc4[nH]nc-3c4c2)C1 [Example 34, (13S)-4-(3-methoxyazetidin-1-yl)-13-methyl-7,10-dioxa-5,14,19,20,23-pentaazatetracyclo[13.5.2.1^2,6.0^18,21]tricosa-1(20),2,4,6(23),15(22),16, 18(21)-heptaene] |
| < 100 nM | C[C@@H]1CCOCC[C@H](C)Oc2ccc3[nH]nc(c3c2)-c2cnn1c2 [Example 25, (6R,12S)-6,12-dimethyl-9,13-dioxa-4,5,18,19-tetraazatetracyclo[12.5.2.1^2,5.0^17,20]docosa-1(19),2(22),3,14(21),15,17(20)-hexaene] |
| < 100 nM | C[C@H]1COCCO[C@H](C)c2cncc(c2)-c2n[nH]c3ccc(cc23)O1 [Example 10, (7R,13S)-7,13-dimethyl-8,11,14-trioxa-4,19,20-triazatetracyclo[13.5.2.1^2,6.0^18,21]tricosa-1(20),2,4,6(23),15(22),16,18(21)-heptaene] |
| < 10 nM | C[C@@H]1CCOCCOc2cccc(n2)-c2n[nH]c3ccc(cc23)O1 [Example 56, (13R)-13-methyl-7,10,14-trioxa-19,20,23-triazatetracyclo[13.5.2.1^2,6.0^18,21] tricosa-1(20),2(23),3,5,15(22),16,18(21)-heptaene] |
| < 10 nM | O=C1CCn2ncc(n2)-c2n[nH]c3ccc(cc23)OCCCN1 [Example 181, 13-oxa-4,5,9,18,19,22-hexaazatetracyclo[12.5.2.1^2,5.0^17,20] docosa-1(19),2(22),3,14(21),15,17(20)-hexaen-8-one] |
| < 100 nM | O=C1NCCCOc2ccc3[nH]nc(c3c2)-c2cccc(c2)[C@H]2C[C@H]12 [Example 164, (7S,9S)-15-oxa-11,20,21-triazapentacyclo[14.5.2.1^2,6.0^7,9.0^19,22] tetracosa-1(21),2(24),3,5,16(23),17,19(22)-heptaen-10-one] |
| < 10 nM | CO[C@@H]1CCN(c2cc3nc(n2)O[C@H](C)COCC[C@H](C)Oc2ccc4[nH]nc-3c4c2)C1 [Example 49, (8R,13S)-4-[(3R)-3-methoxypyrrolidin-1-yl]-8,13-dimethyl-7,10,14-trioxa-5,19,20,23-tetraazatetracyclo[13.5.2.1^2,6.0^18,21]tricosa-1(20),2(23),3,5, 15(22),16,18(21)-heptaene] |
| < 10 nM | O=C1COc2cc(cc(N3CCOCC3)c2)-c2n[nH]c3ccc(cc23)OCCCN1 [Example 207, 4-(morpholin-4-yl)-7,14-dioxa-10,19,20-triazatetracyclo [13.5.2.1^2,6.0^18,21]tricosa-1(20),2(23),3,5,15,17,21-heptaen-9-one] |
| < 10 nM | O=C1COc2cc(C3=CCCOC3)cc(c2)-c2n[nH]c3ccc(cc23)OCCCN1 [Example 210, 4-(5,6-dihydro-2H-pyran-3-yl)-7,14-dioxa-10,19,20-triazatetracyclo[13.5.2.1^2,6.0^18,21]tricosa-1(20),2(23),3,5,15,17,21-heptaen-9-one] |
| < 10 nM | O=C1COc2cc(cc(C3CCOC3)c2)-c2n[nH]c3ccc(cc23)OCCCN1 (centres unmarked) [Example 214, 4-(oxolan-3-yl)-7,14-dioxa-10,19,20-triazatetracyclo[13.5.2.1^2,6.0^18,21]tricosa-1(20),2(23),3,5,15,17,21-heptaen-9-one] |
| < 100 nM | CN1CCOc2ccc3[nH]nc(c3c2)-c2cccc(c2)OCCC1=O [Example 221, 11-methyl-7,14-dioxa-11,19,20-triazatetracyclo[13.5.2.1^2,6.0^18,21] tricosa-1(20),2(23),3,5,15,17,21-heptaen-10-one] |
| < 10 nM | O=C1COc2cc(cc(C(F)(F)F)c2)-c2n[nH]c3ccc(cc23)OCCCN1 [Example 185, 4-(trifluoromethyl)-7,14-dioxa-10,19,20-triazatetracyclo [13.5.2.1^2,6.0^18,21]tricosa-1(20),2,4,6(23),15,17,21-heptaen-9-one] |

| IC50 | SMILES |
| --- | --- |
| < 100 nM | FCC1CCOc2ccc3[nH]nc(c3c2)-c2cccc(c2)OCCN1 (centres unmarked) [Example 155, 11-(fluoromethyl)-7,14-dioxa-10,19,20-triazatetracyclo [13.5.2.1^2,6.0^18,21]tricosa-1(20),2,4,6(23),15,17,21-heptaene] |
| < 10 nM | C[C@@H]1CCOC[C@@H](C)Oc2ccc3[nH]nc(c3c2)-c2cncc(c2)O1 [Example 17, (8R,13R)-8,13-dimethyl-7,11,14-trioxa-4,19,20-triazatetracyclo[13.5.2.1^2,6. 0^18,21]tricosa-1(20),2(23),3,5,15(22),16,18(21)-heptaene] |
| < 10 nM | c1cc2[nH]nc3c2cc1OCCOCCOCCn1cc-3cn1 [Example 63, 8,11,14-trioxa-4,5,19,20-tetraazatetracyclo[13.5.2.1^2,5.0^18,21]tricosa-1(20), 2(23),3,15(22),16,18(21)-hexaene] |
| < 10 nM | C[C@H]1CCOCCCn2cc(cn2)-c2n[nH]c3ccc(cc23)O1 [Example 32, (12S)-12-methyl-9,13-dioxa-4,5,18,19-tetraazatetracyclo[12.5.2.1^2,5.0^17,20] docosa-1(19),2(22),3,14(21),15,17(20)-hexaene] |
| < 1000 nM | C[C@H]1CCOCCCn2cnc(c2)-c2n[nH]c3ccc(cc23)O1 [Example 57, (12S)-12-methyl-9,13-dioxa-3,5,18,19-tetraazatetracyclo [12.5.2.1^2,5.0^17,20] docosa-1(19),2(22),3,14(21),15,17(20)-hexaene] |
| < 10 nM | C[C@@H]1COCCOCCn2cc(cn2)-c2n[nH]c3ccc(cc23)O1 [Example 50, (13R)-13-methyl-8,11,14-trioxa-4,5,19,20-tetraazatetracyclo[13.5.2.1^2,5.0^18,21]tricosa-1(20),2(23),3,15(22),16,18(21)-hexaene] |
| < 10 nM | c1cc2[nH]nc3c2cc1OCCCNCC1(CC1)Oc1cncc-3c1 [Example 157, 7′,14′-dioxa-4′,10′,19′,20′-tetraazaspiro[cyclopropane-1,8′-tetracyclo[13.5.2.1^2,6.0^18,21]tricosane]-1′(20′),2′(23′),3′,5′,15′,17′,21′-heptaene] |
| < 1000 nM | CN1CCCOc2ccc3[nH]nc(c3c2)-c2cc(cnc2F)OCC1=O [Example 200, 3-fluoro-10-methyl-7,14-dioxa-4,10,19,20-tetraazatetracyclo[13.5.2.1^2,6.0^18,21]tricosa-1(20),2,4,6(23),15(22),16,18(21)-heptaen-9-one] |
| < 10 nM | C[C@@H]1CCOCCCn2cc(cn2)-c2n[nH]c3cnc(cc23)O1 [Example 245, (12R)-12-methyl-9,13-dioxa-4,5,15,18,19-pentaaza tetracyclo[12.5.2.1^2,5.0^17,20]docosa-1(19),2(22),3,14(21),15,17(20)-hexaene] |
| < 10 nM | c1cc2[nH]nc3c2cc1OCCCCOCCn1cc-3cn1 [Example 102, 8,13-dioxa-4,5,18,19-tetraazatetracyclo[12.5.2.1^2,5.0^17,20]docosa-1(19),2(22),3,14(21),15,17(20)-hexaene] |
| < 10 nM | C[C@@H]1CCNCCOc2cc(cc(N3CCOCC3)c2)-c2n[nH]c3ccc(cc23)O1 [Example 173, (13R)-13-methyl-4-(morpholin-4-yl)-7,14-dioxa-10,19,20-triazatetracyclo[13.5.2.1^2,6.0^18,21]tricosa-1(20),2(23),3,5,15,17,21-heptaene] |
| < 10 nM | c1cc2[nH]nc3c2cc1OCCCNCCOc1cc-3cc(C2CCOCC2)c1 [Example 147, 4-(oxan-4-yl)-7,14-dioxa-10,19,20-triazatetracyclo[13.5.2.1^2,6.0^18,21]tricosa-1(20),2(23),3,5,15,17,21-heptaene] |
| < 10 nM | C[C@@H]1CCOC[C@H](C)Oc2cncc(c2)-c2n[nH]c3ccc(cc23)O1 [Example 22, (8S,13R)-8,13-dimethyl-7,10,14-trioxa-4,19,20-triazatetracyclo[13.5.2.1^2,6.0^18,21]tricosa-1(20),2(23),3,5,15(22),16,18(21)-heptaene] |
| < 10 nM | O=C1COc2cc(C3=CCOC3)cc(c2)-c2n[nH]c3ccc(cc23)OCCCN1 [Example 211, 4-(2,5-dihydrofuran-3-yl)-7,14-dioxa-10,19,20-triazatetracyclo[13.5.2.1^2,6.0^18,21]tricosa-1(20),2(23),3,5,15,17,21-heptaen-9-one] |
| < 100 nM | CN1CCOCCOc2cc(cc(N3CCOCC3)c2)-c2n[nH]c3ccc(cc23)C1 [Example 91, 13-methyl-4-(morpholin-4-yl)-7,10-dioxa-13,19,20-triazatetracyclo [13.5.2.1^2,6.0^18,21]tricosa-1(20),2,4,6(23),15,17,21-heptaene] |
| < 10 nM | O=C1COc2cc(F)cc(c2)-c2n[nH]c3ccc(cc23)OCCCN1 [Example 195, 4-fluoro-7,14-dioxa-10,19,20-triazatetracyclo[13.5.2.1^2,6.0^18,21]tricosa-1(20),2(23),3,5,15(22),16,18(21)-heptaen-9-one] |
